The values that follow come from patent publication US20220151994A1, “THERAPEUTIC METHODS AND COMPOSITIONS FOR TREATING LYMPHOMA USING 6,8-BISBENZYLTHIO-OCTANOIC ACID” (Rafael Pharmaceuticals, Inc., priority 2019, published 2022).

Each structure is given as a SMILES string.

Series [1] can be described thus: Maximum tolerated dose of CPI-613 as a single agent. The series is classed as in vivo. The note with it: CPI-613 given as a single agent. On the procedure:
In the event that the DLT in ≥2 patients is not observed once the 3,000 mg/m^2 cohort has been tested, dose escalation is also considered to be complete since 3,000 mg/m^2 is the MTD of CPI-613 when given as a single agent. Three additional patients will be enrolled at the MTD for a total of six expected patients at this dose level.

Series [2] can be described thus: Toxicities/side effects seen in prior CPI-613 studies treating other types of cancers. The series is classed as in vivo. From the text: Given the limited data for treating Burkitt lymphoma and other hematological malignancies with CPI-613, the following are the most frequent toxicities seen in prior CPI-613 studies treating other types of cancers.
Series [3] is described as follows: pH and stability of CPI-613 drug product diluted with D5W. The note with it: solution in 1M aqueous triethanolamine diluted from 50 mg/mL to as low as 4 mg/mL with D5W. In kind it is physicochemical. The protocol: A solution of 6,8-bis-benzylthio-octanoic acid in 1M aqueous triethanolamine is diluted from 50 mg/mL to as low as 4 mg/mL with sterile 5% dextrose for injection (D5W) prior to administration. After dilution with D5W, the solution is clear and has a pH of 8.4-8.8. The D5W solution of 6,8-bis-benzylthio-octanoic acid is administered as an IV infusion over two hours via a central venous catheter on days 1-5 of every cycle.
CPI-613 must be diluted from 50 mg/mL to 12.5 mg/mL with 5% Dextrose Water (D5W) (i.e., 1 portion of CPI-613 diluted with 3 portions of D5W) prior to administration. The diluted drug product should be visually inspected for clarity. […] After dilution with sterile D5W, the solution is clear and has a pH of 8.4-8.8.

A short description of series [4]: Photosensitivity of CPI-613. The series is classed as physicochemical. The protocol:
Each vial contains 10 mL of CPI-613 at a concentration 50 mg/mL, equivalent to 500 mg of CPI-613. The drug product of CPI-613 is a clear and colorless solution that is free of any particulate matter. CPI-613 should be stored under refrigeration, at 2°-8° C. (36°-46° F.), except when being prepared for administration.

A short description of series [5]: Compatibility studies with IV infusion sets, IV bags and syringes (Study COM-003). In kind it is physicochemical. The source says:
Therefore, DEHP-containing IV infusion sets, IV bags or syringes should not be used in mixing or administration of CPI-613. […] Therefore, these 4 types of IV infusion sets, and IV infusion sets that are made with the same materials, can be used to administer CPI-613. […] Therefore, any of these types of syringes, and syringes that are made with the same materials, can be used to administer CPI-613. Also, glass syringes can also be used, since glass (such as glass containers) is compatible with CPI-613 drug product. • Norm-Ject, polyethlyene barrel, polyethylene plunger, latex free (Henke Sass Wolf GMBH) syringes • Becton Dickinson syringes • Terumo syringes • Monoject syringes • Glass syringes

Series [6] in a line: Animal studies of IV administration of CPI-613. The series is classed as in vivo. The protocol: CPI-613 must be administered IV, via an IV catheter that is free flowing and free of air in the dead space of the IV catheter, to minimize vascular irritation, inflammation and acute toxicity of CPI-613. […] To avoid local reactions at and around the site of administration, CPI-613 must be administered via a central venous catheter.
CPI-613 must not be administered as a bolus, but by infusion, at a rate of ˜0.5 mL/min, via a central venous catheter with D5W running at a rate of about 125-150 mL/hr. This is to minimize potential acute toxicity of CPI-613, according to animal studies.

In the case of `O=C(O)CCCCC(CCSCc1ccccc1)SCc1ccccc1` (stereo not drawn) [CPI-613, 6,8-bis-benzylthio-octanoic acid], the MTD in series [1] is 3,000 mg/m^2. Also, in series [2], the Common side effects entry was “nausea, leukocytopenia, neutrophils (neutropenia), fatigue, and elevated alkaline phosphatase (ALP)”; the “Rare but serious side effects” value is “infections, disseminated intravascular coagulation, elevated troponin, and renal failure”. Further, in series [3], the “pH of solution after dilution with D5W” value is 8.4-8.8. For the same compound, in series [4], the Photosensitivity result is recorded as “slightly photosensitive”. Also, in series [5] (PVC, latex and polyethylene sets), the “Compatibility with IV infusion sets” value was “compatible with 4 commonly used IV infusion sets”. In series [5] (Study COM-003), the “Leaching of DEHP from IV infusion sets and IV bags” value is recorded as “can cause leaching of Diethylhexyl Phthalate (DEHP)”. Also, the “Effect of accidental co-administration of extra air in the dead space of IV catheters” value in series [6] (animal studies, IV administration) was “potential to induce acute toxicity”. For the same compound, the “Effect of accidental leakage into the perivascular space during IV administration” value in series [6] (in vivo, iv) was “can induce significant local inflammation”.
